{
  "source": "patent US7060293B1",
  "about": "“Powder-layered oral dosage forms” (Purdue Pharma, priority 1994, dated 2006)",
  "key": {"[1]": {"test": "Bulk density (poured and tapped) of drug powders and processing aid", "format": "physicochemical", "conditions": "for Tapped Bulk Densities: entries with asterisk: Bulk Densities performed at PRC"}, "[2]": {"conditions": "entries without asterisk (not marked as performed at PRC); cited from earlier work"}},
  "note": "Counter-ions that a name gives are not always drawn. Like-named read-outs stand apart in the source and are kept apart here.",
  "data": [
    {"compound": "CC(=O)Nc1ccc(O)cc1", "note": "[Acetaminophen]", "values": [
      {"measurement": "bulk density", "setting": "[1]; powder used in the examples", "value": "about 0.42 g/ml"}
    ]},
    {"compound": "Cn1c(=O)c2[nH]cnc2n(C)c1=O", "note": "[Aminophylline USP, Aminophylline]", "values": [
      {"measurement": "Tapped Bulk Densities", "setting": "[1]", "value": 0.62, "unit": "g/mL"}
    ]},
    {"compound": "O=C(O)Cc1ccccc1Nc1c(Cl)cccc1Cl", "note": "[Diclofenac Sodium]", "values": [
      {"measurement": "Tapped Bulk Densities", "setting": "[1]", "value": 0.31, "unit": "g/mL"}
    ]},
    {"compound": "CCN(CC)CCNC(=O)c1cc(Cl)c(N)cc1OC", "note": "[Metoclopramide HCL]", "values": [
      {"measurement": "bulk density", "setting": "[1]; powder used in the examples", "value": "about 0.5 g/ml"},
      {"measurement": "Tapped Bulk Densities", "setting": "[2]", "value": 0.5, "unit": "g/mL"}
    ]},
    {"compound": "O=C1O[C@H]([C@@H](O)CO)C([O-])=C1O.[Na+]", "note": "[Sodium Ascorbate USP, Sodium Ascorbate]", "values": [
      {"measurement": "Tapped Bulk Densities", "setting": "[1]", "value": 0.66, "unit": "g/mL"}
    ]},
    {"compound": "Cn1c(=O)c2[nH]cnc2n(C)c1=O", "note": "[Theophylline Anhydrous]", "values": [
      {"measurement": "Tapped Bulk Densities", "setting": "[1]", "value": 0.44, "unit": "g/mL"}
    ]},
    {"compound": "COc1cccc(C2(O)CCCCC2CN(C)C)c1", "note": "(stereo not shown) [Tramadol HCL]", "values": [
      {"measurement": "Tapped Bulk Densities", "setting": "[1]", "value": 0.42, "unit": "g/mL"},
      {"measurement": "bulk density", "setting": "[1]; powder used in the examples", "value": "about 0.42 g/ml"}
    ]},
    {"compound": "O.OC[C@H]1O[C@@H](O[C@H]2[C@H](O)[C@@H](O)[C@@H](O)O[C@@H]2CO)[C@H](O)[C@@H](O)[C@H]1O", "note": "[lactose hydrous impalpable]", "values": [
      {"measurement": "bulk density", "setting": "[1]; powder used in the examples", "value": 0.56, "unit": "g/mL"},
      {"measurement": "tapped bulk density", "setting": "[1]; powder used in the examples", "value": "about 0.64 g/ml"}
    ]},
    {"compound": "Codeine Sulfate [Codeine Sulfate USP Medium Crystals Fine]", "values": [
      {"measurement": "bulk density", "setting": "[1]; powder used in the examples", "value": "about 0.6 g/ml"}
    ]},
    {"compound": "Doxycycline Metaphosphate Sodium Complex", "values": [
      {"measurement": "Tapped Bulk Densities", "setting": "[2]", "value": 0.49, "unit": "g/mL"}
    ]}
  ]
}
